Among the data in the supplement of paper PMC10307832 are relative viability values, retold here.

Experiment in all cases: relative viability (nuclei count vs DMSO), 5 days (fraction); higher = more cells survive
Compound in the assay “SGI-1776 + Phenformin”: CN1CCC(CNc2ccc3ncc(-c4cccc(OC(F)(F)F)c4)n3n2)CC1 [SGI-1776] + N=C(N)NC(=N)NCCc1ccccc1 [Phenformin] (partner 250 µM)
Put shortly: (§1)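 Dosing by pin tool came one day after lung cancer cell lines were seeded in 1536-well plates, using either one drug or a fixed anchor-drug dose plus five library-drug doses (not always all listed) in √10 steps. After 5 days, nuclei were counted on 4× images. Relative viability is treated-well nuclei count divided by vehicle-well nuclei count, and values are medians of duplicate plates.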

Compound in the assay “SGI-1776 + Linsitinib”: CN1CCC(CNc2ccc3ncc(-c4cccc(OC(F)(F)F)c4)n3n2)CC1 [SGI-1776] + C[C@]1(O)C[C@@H](c2nc(-c3ccc4ccc(-c5ccccc5)nc4c3)c3c(N)nccn32)C1 [Linsitinib] (partner 1 µM)
Put shortly: as §1

Compound in the assay “Entinostat + Vorinostat”: Nc1ccccc1NC(=O)c1ccc(CNC(=O)OCc2cccnc2)cc1 [Entinostat] + O=C(CCCCCCC(=O)Nc1ccccc1)NO [Vorinostat] (partner 1 µM)
Put shortly:
as §1

Compound in the assay “SGI-1776 + Tozasertib”: CN1CCC(CNc2ccc3ncc(-c4cccc(OC(F)(F)F)c4)n3n2)CC1 [SGI-1776] + Cc1cc(Nc2cc(N3CCN(C)CC3)nc(Sc3ccc(NC(=O)C4CC4)cc3)n2)n[nH]1 [Tozasertib] (partner 0.1 µM)
Put shortly:
as §1

In the case of UMC-11, the relative viability with SGI-1776 + Phenformin (first compound 0.08 µM) was determined as 0.31; with SGI-1776 + Phenformin (first compound 0.8 µM), 0.322; with SGI-1776 + Phenformin (first compound 2.53 µM), 0.302; with SGI-1776 + Phenformin (first compound 8 µM), 0.252; in the assay with SGI-1776 + Linsitinib (first compound 0.08 µM) it was 1.06; with SGI-1776 + Linsitinib (first compound 0.8 µM), 0.987. The relative viability is 0.971 with SGI-1776 + Linsitinib (first compound 2.53 µM); 0.836 with SGI-1776 + Linsitinib (first compound 8 µM); 0.43 with Entinostat + Vorinostat (first compound 0.02 µM); 0.321 with Entinostat + Vorinostat (first compound 0.06325 µM); 0.242 with Entinostat + Vorinostat (first compound 0.2 µM); 0.181 with Entinostat + Vorinostat (first compound 0.6325 µM). Further, the relative viability turned out to be 0.12 with Entinostat + Vorinostat (first compound 2 µM); 0.21 with SGI-1776 + Tozasertib (first compound 0.08 µM); 0.194 with SGI-1776 + Tozasertib (first compound 0.8 µM); 0.208 with SGI-1776 + Tozasertib (first compound 2.53 µM); 0.197 in the assay with SGI-1776 + Tozasertib (first compound 8 µM).
